The record followed here is patent publication US20260166045A1, “COMBINATION THERAPY COMPRISING GSPT1-DIRECTED MOLECULAR GLUE DEGRADERS AND PI3K/AKT/mTOR PATHWAY INHIBITORS” (Monte Rosa Therapeutics, Inc., priority 2022, published 2026).

One experiment concerns MCF7 cell line. The experiment can be described thus: CellTiter-Glo 2.0 cell viability, 7x7 combination dose response matrix, synergy scoring. The class given is cell-based. From the text: (§1) A study was undertaken to determine whether the combination of a GSPT1-directed MGD and an inhibitor of the PI3K/AKT/mTOR pathway could be effective in killing cancer cells and whether certain combination could elicit a greater than additive effect on cell killing.
(§2) FIG. 1 is a flow diagram of the method used to assess cancer cell killing by a combination of a GSPT1-directed MGD and an inhibitor of the PI3K/AKT/mTOR pathway. Certain of the materials and equipment used in the studies are presented in Table 3 and the cell lines used are presented in Table 4.
(§3) All assays were run in triplicate. Each 384-well plate accommodated six 7×7 dose response matrices (FIG. 2). All compound handling was performed using an Echo 650 Series Acoustic Liquid Handler, which enables fully automated, precise, contact-free acoustic transfer in volumes as low as 2.5 nL.
(§4) The following protocol was used for cell plating: • 1. Warm media to room temperature or 37° C. • 2. Prepare complete phenol-free media by adding 10% FBS+1% Pen-Strep to RPMI 1640 Medium or DMEM. • 3. Aspirate media from T175 tissue culture flask and rinse with 10 ml PBS. • 4. Aspirate PBS and add 2 mL 0.25% trypsin. Incubate the flask at 37° C. for 5 min or until cells are detached. • 5. Add 10 mL complete media to the flask to neutralize the trypsin, then collect cells in a 50 mL conical tube. • 6. Centrifuge cells at 300 g for 5 min. Aspirate media and suspend cell pellet in fresh media. Use cell strainer to strain cells into a new 50 mL conical tube. • 7. […] Mix 100 uL cell suspension with 100 uL trypan blue (1:1) and pipette 20 μL of the mixture into each of 2 counting chambers on a slide. Insert slide. • b. Adjust focus and record the live cell count. At least 2 independent measurements should be taken. […] Cell viability should be greater than 90%. […] Dilute cell suspension to the desired concentration (20000 cells/mL) using complete phenol-free media. Prepare 10 mL cell suspension per plate+an extra 10 mL for priming the liquid handler. • 9. Dispense cells into 384-well plates using the liquid handler at 25 uL/well (500 cells/well). 3 plates should be prepared per compound plate to be treated. • 10. Cells should be dispensed into columns 1-23 only. Media only (no cells) should be dispensed into column 24. • 11. Allow plates to rest at RT for 30 minutes before transferring to the incubator. Incubate cells overnight at 37° C., 95% humidity, and 5% CO2.
(§5) Compound plates were prepared as follows using an Echo 650 Series Acoustic Liquid Handler. • 1. A compound plate containing 7-point dose responses of each compound to be treated is first prepared from stock compounds. • 2. The cell plates are treated with compounds according to the following maps, where the first compound is added across all six 7 by 7 dose response matrices, and its concentration varies by row (FIG. 2; top matrix), whereas the second compound varies for each dose response matrix, and its concentration varies by column (FIG. 2; bottom matrix). Each cell plate receives one Compound A and six different Compound Bs. • 3. To prepare a compound plate, 384-well PP plate with stock compounds (highest concentration) is prepared. Compounds are diluted 1:1000 in the cell plates, e.g. 10 mM on compound plate will be 10 uM on cell plate. A 384-well LDV plate with pre-determined volumes of DMSO is prepared. Echo is used to dilute stock compounds from PP plate into LDV plate to prepare 7-point dose responses.
(§6) Compounds were added to the cells and cell viability was measured after 72 hour incubation using CellTiter-Glo 2.0 Cell Viability Assay (Promega): • 1. For a compound addition, Echo is used to transfer 25 nL from the compound plate wells to the cell plates according to the plate maps shown in FIG. 2. Cell plates are treated in triplicate. Each well of the cell plate has 25 uL media (1:1000 dilution). Incubate cells post-treatment at 37° C., 95% humidity, and 5% CO2 for 72 hrs (step 106). • 2. […]
In general terms: In ATP-based viability assays light output follows the ATP content of the culture.

A further experiment has as its system CAL51 cell line. The experiment is described as above. The class given is cell-based.
Description: as §1, §2, §3, §4, §5, §6

The test system of the next experiment is MDA-MB-157 cell line. The experiment is described as above. The class given is cell-based. Particulars: combined with M2698 41-10000 nM, first compound 0.41-100 nM.
Description: as §1, §2, §3, §4, §5, §6

Another experiment concerns MDA-MB-231 cell line. Described as above. The class given is cell-based. Particulars: MDA-MB-231; combined with M2698 41-10000 nM; first compound 0.41-100 nM.
Description: as §1, §2, §3, §4, §5, §6

The subject of another experiment is DB cell line. Kind of experiment: CTG viability, 11x11 concentration matrix, Loewe synergy (lymphoma). Particulars: inhibitor combined with compound 1-1, 11x11 matrix, 72 hours.
For another experiment, the system named is DOHH-2 cell line. The description is as above. Particulars: inhibitor combined with compound 1-1, 11x11 matrix, 72 hours.
Another experiment relates to SU-DHL-6 cell line. The experiment is described as above. Particulars: inhibitor combined with compound 1-1, 11x11 matrix, 72 hours.
A further experiment has as its system RAJI cell line. The experiment is described as above. Particulars: inhibitor combined with compound 1-1, 11x11 matrix, 72 hours.
The test system of the next experiment is WSU-DLCL2 cell line. The experiment is described as above. Particulars: inhibitor combined with compound 1-1, 11x11 matrix, 72 hours.
The mark [1] stands for this setting: MCF7, combined with Alpelisib 41-10000 nM, first compound 0.41-33.33 nM.
[2] abbreviates: MCF7, combined with M2698 41-10000 nM, first compound 0.41-100 nM.
The mark [3] stands for this setting: CAL51, combined with Alpelisib 41-10000 nM, first compound 0.41-33.33 nM.
[4] abbreviates: CAL51, combined with M2698 41-10000 nM, first compound 0.41-100 nM.
Where [5] appears, read: MCF7, combined with Alpelisib 41-10000 nM, first compound 0.41-100 nM.
[6] abbreviates: MCF7, combined with Capivasertib 41-10000 nM, first compound 0.41-100 nM.
The mark [7] stands for this setting: MCF7, combined with GNE-477 41-10000 nM, first compound 0.41-100 nM.
The mark [8] stands for this setting: MCF7, combined with HS173 41-10000 nM, first compound 0.41-100 nM.
Setting [9] is: MCF7, combined with Serabelisib 41-10000 nM, first compound 0.41-100 nM.
The mark [10] stands for this setting: CAL51, combined with Alpelisib 41-10000 nM, first compound 0.41-100 nM.
Setting [11] is: CAL51, combined with Capivasertib 41-10000 nM, first compound 0.41-100 nM.
The mark [12] stands for this setting: CAL51, combined with GNE-477 41-10000 nM, first compound 0.41-100 nM.
Setting [13] is: CAL51, combined with HS173 41-10000 nM, first compound 0.41-100 nM.
Where [14] appears, read: CAL51, combined with Serabelisib 41-10000 nM, first compound 0.41-100 nM.

Each structure is given as a SMILES string.

Description for DB cell line: (§7) Cells were cultured in the media recommended by the supplier.
(§8) On the day before compound addition, cells were seeded in 384-well-plates (white with clear flat bottom) at the densities indicated in Table 6 in 40 μL of growth medium. The next day, compounds were dispensed from 10 mM stocks using a HP D300 dispenser according to the concentration matrices described above. For each cell line, the compound concentration matrices were dispensed twice as side-by-side duplicates on one 384-well-plate. In addition, each plate contained 14 wells with only growth medium and 44 wells with cells treated with DMSO alone to calculate the average background and maximal signals, respectively. The final DMSO concentration was normalized to 0.2% across the plates. Plates were then incubated for 72 hours. CellTiter-Glo® Luminescent Cell Viability Assay (CTG, Promega G7570) reagent was prepared according to the manufacturer's instructions. Plates were equilibrated to room temperature for approximately 30 minutes, 25 μL CTG reagent was added to each well and plates were mixed on an orbital shaker for 10 minutes to allow for cell lysis. After further incubation for 20 minutes at room temperature, the clear bottoms of the plates were pasted with white back seal and luminescence was read on an EnVision plate reader (measurement time 0.1 seconds).
Description for DOHH-2 cell line: as §7, §8
Description for RAJI cell line: as §7, §8
Description for SU-DHL-6 cell line: as §7, §8
Description for WSU-DLCL2 cell line: as §7, §8

As to `O=C1CCC(N2Cc3ccc(COC(=O)Nc4ccc(F)c(OC(F)(F)F)c4)cc3C2=O)C(=O)N1` (stereo not shown) [Compound 1-2, [2-(2,6-dioxopiperidin-3-yl)-3-oxo-2,3-dihydro-1H-isoindol-5-yl]methyl N-[4-fluoro-3-(trifluoromethoxy)phenyl]carbamate], the “Mean Bliss synergy score” value in the experiment on MCF7 cell line (setting [1]) is 14.93; in the experiment on MCF7 cell line (setting [2]), 19.15; with CAL51 cell line (setting [3]), 13.24; in the experiment on CAL51 cell line (setting [4]), 20.45; in the experiment with CAL51 cell line (combined with M2698 (41 nM to 10 uM), CAL51 cell line, mean across dose response matrix, 72 hrs) it was 20.45; in the experiment on MDA-MB-157 cell line, 4.58. In addition, in the experiment with MDA-MB-231 cell line, the “Mean Bliss synergy score” value worked out at 1.26. The “Mean Loewe synergy score” value is listed as 11.94 with MCF7 cell line (setting [1]); 12.31 in the experiment with MCF7 cell line (setting [2]); 10.04 in the experiment with CAL51 cell line (setting [3]); 10.06 in the experiment on CAL51 cell line (setting [4]); 5.68 in the experiment with MDA-MB-157 cell line; 3.82 in the experiment on MDA-MB-231 cell line.
For the molecule `O=C1CCC(N2Cc3ccc(COC(=O)Nc4ccc(F)c(OC(F)F)c4)cc3C2=O)C(=O)N1` (stereo not shown) [Compound 1-3, [2-(2,6-dioxopiperidin-3-yl)-3-oxo-2,3-dihydro-1H-isoindol-5-yl]methyl N-[3-(difluoromethoxy)-4-fluorophenyl]carbamate], the “Mean Bliss synergy score” value with MCF7 cell line (setting [1]) was determined as 17.71; with MCF7 cell line (setting [2]), 25.34; in the experiment with MCF7 cell line (combined with Alpelisib (41 nM to 10 uM), MCF7 cell line, mean across dose response matrix, 72 hrs), 17.71; in the experiment on CAL51 cell line (setting [3]), 13.63; in the experiment on CAL51 cell line (setting [4]), 30.29; in the experiment on MDA-MB-157 cell line it was 6.71. The “Mean Bliss synergy score” value with MDA-MB-231 cell line turned out to be 5.67. Also, the “Mean Loewe synergy score” value stood at 10.32 in the experiment with MCF7 cell line (setting [1]); 13.77 with MCF7 cell line (setting [2]); 8.54 with CAL51 cell line (setting [3]); 15.43 with CAL51 cell line (setting [4]); 6.57 in the experiment with MDA-MB-157 cell line; 4.75 in the experiment with MDA-MB-231 cell line.
As for `Cc1cc(C)cc(NC(=O)OCc2ccc3c(c2)C(=O)N(C2CCC(=O)NC2=O)C3)c1` (stereo not shown) [Compound 1-4, [2-(2,6-dioxopiperidin-3-yl)-3-oxo-2,3-dihydro-1H-isoindol-5-yl]methyl N-(3,5-dimethylphenyl)carbamate], the “Mean Bliss synergy score” value is reported as 9.41 in the experiment with MCF7 cell line (setting [1]); 17.96 with MCF7 cell line (setting [5]); 17.17 in the experiment on MCF7 cell line (setting [6]); 9.39 with MCF7 cell line (setting [7]); 3.51 with MCF7 cell line (setting [8]); 14.55 in the experiment on MCF7 cell line (setting [2]). In addition, the “Mean Bliss synergy score” value in the experiment on MCF7 cell line (setting [9]) stood at 4.26; in the experiment on CAL51 cell line (setting [3]), 10.76; in the experiment with CAL51 cell line (setting [10]) it was 36.63; in the experiment on CAL51 cell line (setting [11]), 30.43; in the experiment on CAL51 cell line (setting [12]), 15.82; in the experiment with CAL51 cell line (setting [13]), 8.74. Further, the “Mean Bliss synergy score” value in the experiment on CAL51 cell line (setting [4]) is reported as 16.31; in the experiment with CAL51 cell line (setting [14]), 5.71; in the experiment with CAL51 cell line (combined with Alpelisib (41 nM to 10 uM), CAL51 cell line, mean across dose response matrix, 72 hrs), 36.63; in the experiment on MDA-MB-157 cell line it was 4.94; in the experiment with MDA-MB-231 cell line it was 2.10. For the same molecule, the “Mean Loewe synergy score” value was 7.90 with MCF7 cell line (setting [1]); 9.59 in the experiment with MCF7 cell line (setting [5]); 9.85 with MCF7 cell line (setting [6]); 7.58 in the experiment on MCF7 cell line (setting [7]); 1.27 in the experiment with MCF7 cell line (setting [8]); 7.79 in the experiment on MCF7 cell line (setting [2]). In addition, the “Mean Loewe synergy score” value in the experiment on MCF7 cell line (setting [9]) is 1.36; in the experiment on CAL51 cell line (setting [3]), 7.63; with CAL51 cell line (setting [10]), 11.29; in the experiment with CAL51 cell line (setting [11]), 14.67; with CAL51 cell line (setting [12]), 6.64; in the experiment on CAL51 cell line (setting [13]), 1.29. In addition, the “Mean Loewe synergy score” value in the experiment on CAL51 cell line (setting [4]) was 8.47; with CAL51 cell line (setting [14]), −1.80; in the experiment on MDA-MB-157 cell line it was 5.54; with MDA-MB-231 cell line, 2.36.
For `O=C1CCC(N2Cc3ccc(COC(=O)Nc4cccc(OC(F)(F)F)c4)cc3C2=O)C(=O)N1` (stereo not shown) [Compound 1-5, [2-(2,6-dioxopiperidin-3-yl)-3-oxo-2,3-dihydro-1H-isoindol-5-yl]methyl N-[3-(trifluoromethoxy)phenyl]carbamate], the “Mean Bliss synergy score” value in the experiment on MCF7 cell line (setting [1]) is reported as −2.19; in the experiment with MCF7 cell line (setting [2]) it was 5.35; in the experiment with CAL51 cell line (setting [3]), −0.17; with CAL51 cell line (setting [4]), 7.95; in the experiment on MDA-MB-157 cell line, 2.85; in the experiment on MDA-MB-231 cell line, 1.74. Moreover, the “Mean Loewe synergy score” value was found to be 6.06 in the experiment with MCF7 cell line (setting [1]); 12.24 in the experiment with MCF7 cell line (setting [2]); 7.63 with CAL51 cell line (setting [3]); 11.33 in the experiment with CAL51 cell line (setting [4]); 4.08 with MDA-MB-157 cell line; 3.68 in the experiment on MDA-MB-231 cell line.
Turning to `CC[C@H](Nc1ncnc2nc[nH]c12)c1nc2cccc(F)c2c(=O)n1-c1ccccc1` [idelalisib, 5-fluoro-3-phenyl-2-[(1S)-1-(7H-purin-6-ylamino)propyl]quinazolin-4-one], in the experiment with DB cell line, the “Mean Loewe synergy score, DB” value is −3.25. In the experiment with DOHH-2 cell line, the “Mean Loewe synergy score, DOHH2” value worked out at 4.04. Moreover, the “Mean Loewe synergy score, SUDHL6” value in the experiment with SU-DHL-6 cell line worked out at 5.75. For the same molecule, the “Mean Loewe synergy score, RAJI” value in the experiment on RAJI cell line is 3.47. Besides, the “Mean Loewe synergy score, WSU-DLCL2” value with WSU-DLCL2 cell line is recorded as −2.08.
